In assay [1] the test system is C6. The assay can be described thus: Induction of morphological changes in rat C6 cells assessed as cellular senescence by measuring cell rounding with distorted morphology after 24 hrs by inverted microscopy analysis. The class given is functional, cell-based.
The test system of assay [2] is C6. As to the kind of experiment: Antiproliferative activity against rat C6 cells assessed as decrease in cell viability measured after 48 hrs by MTT assay. The class given is functional, cell-based. The note with it: for IC50: C6, 48 h. In general terms: Formazan colour is commonly taken as a measure of viable cells.
Another assay concerns the target T1, Dihydrofolate reductase (Homo sapiens, UniProt P00374).
T1 sequence (P00374 whole entry): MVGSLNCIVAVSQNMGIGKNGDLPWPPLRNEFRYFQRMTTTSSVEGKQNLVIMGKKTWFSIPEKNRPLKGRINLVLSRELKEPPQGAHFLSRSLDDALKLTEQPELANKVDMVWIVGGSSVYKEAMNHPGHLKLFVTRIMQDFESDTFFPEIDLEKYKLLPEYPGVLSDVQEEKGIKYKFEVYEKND
As to the kind of experiment: Inhibition of human dihydrofolate reductase using dihydrofolic acid as substrate preincubated for 1 hr in presence of NADPH followed by substrate addition by enzyme immunoassay.

Assay [3] has as its system C6. As to the kind of experiment: Cell cycle arrest in rat C6 cells assessed as cell population at G0/G1 phase measured after 24 hrs by propidium iodide staining based flow cytometry analysis. The class given is functional. (In general: Flow cytometry measures light scatter and fluorescence of single cells or particles in a stream.)
Assay [4] has as its system C6. The assay can be described thus: Cell cycle arrest in rat C6 cells assessed as decrease in cell population at G2/M phase measured after 24 hrs by propidium iodide staining based flow cytometry analysis. The class given is functional.
For assay [5], the system named is C6. As to the kind of experiment: Cell cycle arrest in rat C6 cells assessed as increase in cell population at sub G0 phase measured after 24 hrs by propidium iodide staining based flow cytometry analysis. The class given is functional.
Assay [6] has as its system C6. The assay can be described thus: Cell cycle arrest in rat C6 cells assessed as decrease in cell population at S phase measured after 24 hrs by propidium iodide staining based flow cytometry analysis. It is filed as functional.
Another assay deals with UO-31. The assay can be described thus: Growth inhibition of human UO31 cells at 10^-5 M incubated for 48 hrs by sulforhodamine B assay relative to control. The class given is functional. The note with it: UO-31, 48 h, read-out: GI. For orientation: In SRB staining, fixed cells bind dye roughly in proportion to their protein.
A further assay deals with MCF7. As to the kind of experiment: Growth inhibition of human MCF7 cells at 10^-5 M incubated for 48 hrs by sulforhodamine B assay relative to control. It is filed as functional. The note with it: MCF7, 48 h, read-out: GI.
In assay [7] the test system is C6. As to the kind of experiment: Induction of morphological changes in rat C6 cells assessed as increase in total length of processes measured after 24 hrs by inverted microscopy analysis relative to control. The class given is functional.

The source made the active and inactive calls. The rule behind the calls is not given here.

For orientation: IC50 means the point on the concentration scale where inhibition reaches its midpoint. For the compound `C[C@H](NC(=O)CNC(=O)c1cccc2c(=O)c3ccccc3[nH]c12)C(=O)O`, the outcome with C6 [1] was Active. Moreover, in the assay on C6 [2], the inhibition result is “Dose-dependent effect” and the IC50 was in the range of 250 to 1500 nM. The IC50 at Dihydrofolate reductase is 670 nM. In addition, the result in the assay with C6 [3] was inactive.

For the compound `COc1cccc2c1C(=O)c1c(O)c3c(c(O)c1C2=O)C[C@@](O)(C(=O)CO)C[C@@H]3O[C@H]1C[C@H](N)[C@@H](O)[C@H](C)O1`, the inhibition entry in the assay with C6 [4] and in the assay on C6 [6] was “Active” in each case. Besides, the result with C6 [5] was Active.

`CC1=NN(c2cccc(Cl)c2)C(=O)/C1=C\c1cn(CC(O)Cn2c3ccccc3c(=O)c3ccccc32)c2ccccc12` (racemic): the 50% inhibitory concentration (IC50) on Dihydrofolate reductase is 1800 nM.

On to `O=C1Nc2ccccc2/C1=C/c1cn(CC(O)Cn2c3ccccc3c(=O)c3ccccc32)c2ccccc12` (racemic), for which, in the assay with C6 [1], the outcome was Active. Moreover, the inhibition of growth at 10 µM was found to be 70% in the assay with UO-31 and 55% in the assay on MCF7. Besides, the inhibition entry in the assay on C6 [4] was “Active”. Further, the inhibition result in the assay on C6 [2] was “Dose-dependent effect”. The figures for the IC50 with C6 [2] and on Dihydrofolate reductase were 250 to 1500 nM and 100 nM, respectively. The Activity in the assay with C6 [7] is 16 - 18%. Further, the outcome in the assay on C6 [3] was inactive.

`CN1C(=O)C(=Cc2cn(CC(O)Cn3c4ccccc4c(=O)c4ccccc43)c3ccccc23)C(=O)N(C)C1=O` (racemic): at Dihydrofolate reductase, the IC50 was determined as 210 nM.
